Values quoted from earlier work, collected in US20140234430A1, “PHARMACEUTICAL METHODS AND TOPICAL COMPOSITIONS CONTAINING ACITRETIN” (DOUGLAS PHARMACEUTICALS LTD., priority 2011, published 2014).

In the case of COc1cc(C)c(/C=C/C(C)=C/C=C/C(C)=C/C(=O)O)c(C)c1C [acitretin, (2E,4E,6E,8E)-9-(4-methoxy-2,3,6-trimethylphenyl)-3,7-dimethylnona-2,4,6,8-tetraenoic acid], the Solubility in alcohols (suitable alcohols) is given as “quite poorly soluble” and the Solubility in water (water) is given as “very poorly soluble”.
